Assay in all cases: DTP human tumour cell line panel, 48 h
Assay [1] deals with K-562 leukemia.
Assay [2] deals with A498 renal.
Assay [3] has as its system HCC-2998 colon.
The test system of assay [4] is SNB-19 CNS.
In assay [5] the test system is T-47D breast.
Assay [6] has as its system MALME-3M melanoma.
Assay [7] deals with MDA-MB-435.
For assay [8], the system named is NCI/ADR-RES ovarian.
In assay [9] the test system is NCI-H522 lung.
In assay [10] the test system is UO-31 renal.

Each structure is given as a SMILES string.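 Each compound was tested at five concentrations against cells in 96-well plates for 48 hours. Abbreviation: GI50, concentration required for 50% inhibition of growth. At the TGI there is no net growth.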

The GI50 is the concentration that inhibits growth by half. A word on the TGI: it is the concentration giving total growth inhibition. Low readings indicate more potent growth arrest, high ones less potent growth arrest. In the case of `COc1cc(/C=C2\CN(C)C/C(=C\c3cc(OC)c(OC)c(OC)c3)C2=O)cc(OC)c1OC`, the GI50 in assay [1] is 0.334 µM; in assay [2] it was 0.447 µM; in [3] it was 0.366 µM; in [4], 1.14 µM; in assay [5] it was 1.12 µM; in assay [6], 0.209 µM. Also, the GI50 in assay [7] was 0.287 µM; in [8], 0.349 µM; in assay [9] it was 0.234 µM; in [10], 0.28 µM. The TGI in [1] was greater than 100 µM; in assay [2] it was 1.59 µM; in assay [3], 1.22 µM; in assay [4] it was 2.6 µM; in assay [5], 5.02 µM; in assay [6], 0.435 µM. The total growth inhibition concentration (TGI) in assay [7] is 1.02 µM; in assay [8] it was greater than 100 µM; in [9] it was 0.624 µM; in assay [10] it was 0.818 µM.

For the compound `O=[N+]([O-])c1cc(CCl)ccc1CCl`, the TGI stood at 7.49 µM in assay [1]; 16.1 µM in assay [2]; 4.01 µM in [3]; 3.8 µM in assay [4]; 1.03 µM in assay [5]; 3.51 µM in assay [6]. The TGI was 5.05 µM in [7], 8.84 µM in assay [8], 3.98 µM in assay [9] and 3.18 µM in assay [10].

Turning to `CNNCc1ccc(C(=O)NC(C)C)cc1`, the GI50 in assay [1] and in assay [3] was greater than 500 µM in each case. The TGI in [1], in [2], in assay [3], in [4], in assay [5] and in assay [6] was greater than 500 µM in each case. Besides, the TGI in [7], in [8], in assay [9] and in [10] was greater than 500 µM in each case.

With `O=C(Nc1ccccc1)Nc1cccc(-n2cc(-c3ccncc3)c(-c3ccc(O)c(Cl)c3)n2)c1`, the GI50 in assay [1] was 3.59 µM; in assay [2], 2.5 µM; in assay [3], 3.19 µM; in assay [4], 6.27 µM; in [5] it was 4.34 µM; in assay [6], 2.25 µM. In addition, the GI50 in assay [7] is 3.03 µM; in assay [8], 6.49 µM; in assay [9], 2.26 µM; in assay [10], 3.43 µM. In addition, the concentration for total growth inhibition (TGI) was 13.4 µM in [1]; 8.37 µM in assay [2]; 9.79 µM in assay [3]; greater than 100 µM in assay [4]; 25.8 µM in [5]; 6.02 µM in assay [6]. The TGI in assay [7] is 17 µM; in [8] it was 82.6 µM; in assay [9], 6.73 µM; in [10] it was 31.8 µM.

In the case of `NC1=C(Cl)C(=O)c2ccc(S(N)(=O)=O)cc2C1=O`, the GI50 in assay [1] is 0.313 µM; in assay [2], 0.507 µM; in assay [3] it was 0.775 µM; in assay [4], 0.305 µM; in assay [5] it was 0.318 µM; in [6] it was 0.0426 µM. Further, the GI50 was 0.0288 µM in [7], 0.285 µM in [8], 0.189 µM in assay [9] and 0.211 µM in assay [10]. The TGI in assay [1] came to 1.21 µM; in assay [2], 1.3 µM; in assay [3] it was 2.06 µM; in assay [4] it was 1.05 µM; in [5], 1.2 µM; in assay [6], 0.137 µM. Further, the TGI in assay [7] was 0.0743 µM; in assay [8], 4.68 µM; in assay [9], 0.403 µM; in [10], 0.564 µM.

Turning to `O=C1C(=O)c2ccccc2-c2ccccc21`, the GI50 is 1.01 µM in assay [1]; 1.8 µM in assay [2]; 1.99 µM in [3]; 1.45 µM in [4]; 0.49 µM in [5]; 1.79 µM in assay [6]. In addition, the 50% growth inhibitory concentration (GI50) is 0.198 µM in assay [7], 0.543 µM in assay [8], 1.75 µM in [9] and 1.44 µM in assay [10]. In addition, the TGI in [1] came out at 4.02 µM; in assay [2], 3.32 µM; in assay [3], 3.52 µM; in [4] it was 2.95 µM; in assay [5], 2.72 µM; in assay [6] it was 3.31 µM. Besides, the TGI in assay [7] is 0.416 µM; in assay [8], 2.9 µM; in assay [9], 4.12 µM; in assay [10], 2.82 µM.

On to `N#CC(=S)Nc1ccc(Cl)c(Cl)c1`, for which the total growth inhibition concentration (TGI) in assay [1] was 46.9 µM; in [2], 51.8 µM; in assay [3] it was 34.8 µM; in assay [4] it was greater than 100 µM; in assay [5], greater than 74.8 µM; in assay [6], greater than 54.7 µM. The TGI in assay [7] was greater than 70.5 µM; in assay [8] it was 65.4 µM; in [9], 24.2 µM; in assay [10] it was 51.6 µM. The GI50 was 3.73 µM in [9] and 7.63 µM in assay [10].

In the case of `O=C(O)C1NCCc2c1[nH]c1ccccc21` (stereo not given), the GI50 in assay [1], in assay [2], in [3], in [4], in assay [6] and in assay [9] was greater than 100 µM in each case. In addition, the TGI in [1] is greater than 100 µM; in assay [2] it was greater than 100 µM; in assay [3], greater than 100 µM; in [4], greater than 100 µM; in [5], greater than 10 µM; in assay [6], greater than 100 µM. Besides, the TGI was greater than 10 µM in [7], greater than 10 µM in [8], greater than 100 µM in assay [9] and greater than 100 µM in assay [10].

`Cc1cccc2c(N=Nc3ccc(S(N)(=O)=O)cc3)c(O)[nH]c12`: the GI50 in assay [1], in assay [2], in assay [3], in [4], in [5] and in [6] was greater than 25 µM in each case. Besides, the GI50 in [7], in assay [8], in [9] and in [10] was greater than 25 µM each time. The TGI in assay [1], in assay [2], in [3], in assay [4], in assay [5] and in assay [6] was greater than 25 µM in each case. Also, the concentration for total growth inhibition (TGI) in assay [7], in [8], in [9] and in [10] was greater than 25 µM each time.

The record behind these values is PubChem BioAssay (NCI).
